Reference: patent US7763598B2, “1α-hydroxy-2-(3′-hydroxypropylidene)-19-nor-vitamin D compounds with a 1,1-dimethylpropyl side chain” (Wisconsin Alumni Research Foundation, priority 2006, dated 2010)

Assays:
[1] = Bone calcium mobilization (serum calcium) in vitamin D-deficient rats; type: in vivo, rat
Protocol: (§1) Male, weanling Sprague-Dawley rats were placed on Diet 11 (0.47% Ca) diet +AEK for one week followed by Diet 11 (0.02% Ca) +AEK for 3 weeks. The rats were then switched to a diet containing 0.47% Ca for one week followed by two weeks on a diet containing 0.02% Ca. Dose administration began during the last week on 0.02% calcium diet. Four consecutive ip doses were given approximately 24 hours apart. Twenty-four hours after the last dose, blood was collected from the severed neck and the concentration of serum calcium determined as a measure of bone calcium mobilization. The first 10 cm of the intestine was also collected for intestinal calcium transport analysis using the everted gut sac method.

[2] = test system: Human promyelocytic leukemia (HL60) cells; experiment: HL-60 differentiation (nitro blue tetrazolium reduction); type: cell-based; settings: FIG. 2; for EC50: HL60 cells, 4 days, NBT reduction
Protocol: The study drugs were dissolved in ethanol and the concentrations determined using UV spectrophotometry. Serial dilutions were prepared so that a range of drug concentrations could be tested without changing the final concentration of ethanol (≦0.2%) present in the cell cultures.
Human promyelocytic leukemia (HL60) cells were grown in RPMI-1640 medium containing 10% fetal bovine serum. The cells were incubated at 37° C. in the presence of 5% CO2.
HL60 cells were plated at 1.2×10^5 cells/ml. Eighteen hours after plating, cells in duplicate were treated with drug. Four days later, the cells were harvested and a nitro blue tetrazolium reduction assay was performed (Collins et al., 1979; J. Exp. Med. 149:969-974). The percentage of differentiated cells was determined by counting a total of 200 cells and recording the number that contained intracellular black-blue formazan deposits. Verification of differentiation to monocytic cells was determined by measuring phagocytic activity (data not shown).

[3] = biological target: T1, full-length recombinant rat vitamin D receptor (Rattus norvegicus, UniProt P13053); experiment: Vitamin D receptor binding (competition with [3H]-1,25(OH)2D3); settings: full-length recombinant rat VDR; FIG. 1
T1 construct: Full-length recombinant rat receptor was expressed in E. coli; histidine tag (C); made in house; host or cells: E. coli BL21 (DE3) Codon Plus RIL
T1 sequence (P13053 1-423): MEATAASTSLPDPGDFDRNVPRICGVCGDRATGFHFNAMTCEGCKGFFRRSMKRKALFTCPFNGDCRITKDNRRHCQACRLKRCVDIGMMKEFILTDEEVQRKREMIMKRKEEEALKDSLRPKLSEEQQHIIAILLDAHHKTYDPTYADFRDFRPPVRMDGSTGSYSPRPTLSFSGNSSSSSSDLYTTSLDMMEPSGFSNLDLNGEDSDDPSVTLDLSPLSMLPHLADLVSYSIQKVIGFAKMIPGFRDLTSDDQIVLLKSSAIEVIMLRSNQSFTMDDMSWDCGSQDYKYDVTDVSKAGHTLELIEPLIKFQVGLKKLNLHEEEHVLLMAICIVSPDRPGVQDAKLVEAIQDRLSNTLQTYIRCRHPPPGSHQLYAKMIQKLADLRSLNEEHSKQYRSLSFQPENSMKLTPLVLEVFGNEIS
Protocol: Full-length recombinant rat receptor was expressed in E. coli BL21 (DE3) Codon Plus RIL cells and purified to homogeneity using two different column chromatography systems. The first system was a nickel affinity resin that utilizes the C-terminal histidine tag on this protein. The protein that was eluted from this resin was further purified using ion exchange chromatography (S-Sepharose Fast Flow). Aliquots of the purified protein were quick frozen in liquid nitrogen and stored at −80° C. until use. For use in binding assays, the protein was diluted in TEDK50 (50 mM Tris, 1.5 mM EDTA, pH7.4, 5 mM DTT, 150 mM KCl) with 0.1% Chaps detergent. The receptor protein and ligand concentration were optimized such that no more than 20% of the added radiolabeled ligand was bound to the receptor.
Radiolabeled and unlabeled ligands were added to 100 mcl of the diluted protein at a final ethanol concentration of ≦10%, mixed and incubated overnight on ice to reach binding equilibrium. The following day, 100 mcl of hydroxylapatite slurry (50%) was added to each tube and mixed at 10-minute intervals for 30 minutes. […] After the final wash, the pellets were transferred to scintillation vials containing 4 ml of Biosafe II scintillation cocktail, mixed and placed in a scintillation counter. Total binding was determined from the tubes containing only radiolabeled ligand.

[4] = test system: 24-hydroxylase (24Ohase) gene promoter; experiment: In vitro transcription assay (luciferase reporter in ROS 17/2.8 bone cells); type: cell-based; settings: FIG. 3; for EC50: ROS 17/2.8 cells, 24Ohase promoter-luciferase, 16 h, read-out: EC50, transcriptional activity in bone cells
Protocol: Transcription activity was measured in ROS 17/2.8 (bone) cells that were stably transfected with a 24-hydroxylase (24Ohase) gene promoter upstream of a luciferase reporter gene (Arbour et al., 1998). Cells were given a range of doses. Sixteen hours after dosing the cells were harvested and luciferase activities were measured using a luminometer.
RLU=Relative Luciferase Units.

[5] = Intestinal calcium transport (everted gut sac) in vitamin D-deficient rats; type: in vivo, rat; settings: for Intestinal calcium transport: everted gut sac, vitamin D-deficient rats, FIG. 5
Protocol: as §1

EC50 ([2]; Homo sapiens, HL-60, 96 h) [nM] | Binding to vitamin D receptor compared to 1,25-(OH)2D3 (in words) [3] | Ki [3] [nM] | SMILES | Bone calcium mobilization (serum calcium) ([1]; 260 pmol/day ip for 4 consecutive days, vitamin D-deficient rats on low calcium diet (0.02%), FIG. 4) | Bone calcium mobilization (serum calcium) ([1]; 2340 pmol/day ip for 4 consecutive days, vitamin D-deficient rats on low calcium diet (0.02%), FIG. 4) | Bone calcium mobilization activity compared to 1,25(OH)2D3 (in words) ([1]; FIG. 4, overall) | HL-60 cell differentiation potency compared to 1,25(OH)2D3 (in words) [2] | Transcriptional activity in bone cells compared to 1α,25-dihydroxyvitamin D3 (in words) [4] | EC50 [4] [nM] | Intestinal calcium transport ([5]; 260 pmol/day) | Intestinal calcium transport ([5]; 2340 pmol/day) | Stimulating intestinal calcium transport compared to 1,25(OH)2D3 (in words) ([5]; FIG. 5, overall) | Serum calcium levels (bone calcium mobilization) ([1]; at the dosage tested, vitamin D-deficient rats on low calcium diet (0.02%), FIG. 4) | EC50 [2] [nM]
50 | bound equally well | 0.08 | CCC(C)(C)C1CCC2C(=CC=C3CC(O)C(=CCCO)C(O)C3)CCCC21C (stereo not drawn) [20DC, 1α-hydroxy-2-[3′-hydroxypropylidene]-20-methyl-19,24,25,26,27-pentanorvitamin D3] | did not result in mobilization of bone calcium | without any substantial effect | very little bone calcium mobilization activity | about as potent as 1,25(OH)2D3 | about the same transcriptional activity | 2 | does not promote intestinal calcium transport | does not promote intestinal calcium transport | very little activity | – | –
– | – | – | C=C1/C(=C\C=C2/CCC[C@]3(C)[C@@H]([C@H](C)CCCC(C)(C)O)CC[C@@H]23)C[C@@H](O)C[C@@H]1O [1,25(OH)2D3, 1α,25-dihydroxyvitamin D3, reference compound] | – | – | – | – | – | 0.2 | promotes a significant increase | – | – | increased serum calcium levels | 20
